In US11246929B2, “Combination of a protein kinase inhibitor and an additional chemotherapeutic agent” (Merck Patent GmbH, priority 2016, dated 2022):

Assays:
Assay in all cases: SRB growth inhibition, 93 cell lines panel
Type in all cases: cell-based
22RV1 = conditions: Homo sapiens; 22RV1, prostate; read-out: GI50 of etoposide (±Compound 1)
Method: (§1) 90 μl of cells, after a 48-hour pre-growth period, were treated by mixing with 10 μl of the compound-containing media (resulting in a final DMSO concentration of 0.1%).
(§2) This is the drug concentration causing a 50% reduction compared to the net protein increase in control cells during the drug incubation period. In other words, G150 is IC50 corrected for time zero. […] TGI was calculated from Ti=Tz. […] It was calculated as 100×[(Ti−Tz)/Tz]=−50.

A431 = conditions: Homo sapiens, A-431; A431, skin; read-out: GI50 of etoposide (±Compound 1)
Method: as §1, §2

ASPC1 = conditions: Homo sapiens; ASPC1, pancreas; read-out: GI50 of etoposide (±Compound 1)
Method: as §1, §2

COLO205 = conditions: Homo sapiens, COLO 205; COLO205, colon; read-out: GI50 of etoposide (±Compound 1)
Method: as §1, §2

DU145 = conditions: Homo sapiens, DU-145; DU145, prostate; read-out: GI50 of etoposide (±Compound 1)
Method: as §1, §2

HEK293 = conditions: Homo sapiens; HEK293, kidney; read-out: GI50 of etoposide (±Compound 1)
Method: as §1, §2

HS729 = conditions: HS729, muscle; read-out: GI50 of etoposide (±Compound 1)
Method: as §1, §2

IGROV1 = conditions: Homo sapiens, IGROV-1; IGROV1, ovary; read-out: GI50 of etoposide (±Compound 1)
Method: as §1, §2

JEG3 = conditions: Homo sapiens, JEG-3; JEG3, placenta; read-out: GI50 of etoposide (±Compound 1)
Method: as §1, §2

MCF7 = conditions: Homo sapiens; MCF7, breast; read-out: GI50 of etoposide (±Compound 1)
Method: as §1, §2

MDAMB435 = conditions: Homo sapiens, MDA-MB-435; MDAMB435, skin; read-out: GI50 of etoposide (±Compound 1)
Method: as §1, §2

MDAMB436 = conditions: Homo sapiens, MDA-MB-436; MDAMB436, breast; read-out: GI50 of etoposide (±Compound 1)
Method: as §1, §2

MDAMB468 = conditions: Homo sapiens, MDA-MB-468; MDAMB468, breast; read-out: GI50 of etoposide (±Compound 1)
Method: as §1, §2

MG63 = conditions: Homo sapiens, MG-63; MG63, bone; read-out: GI50 of etoposide (±Compound 1)
Method: as §1, §2

MIAPACA2 = conditions: Homo sapiens, MIA PaCa-2; MIAPACA2, pancreas; read-out: GI50 of etoposide (±Compound 1)
Method: as §1, §2

NCIH292 = conditions: Homo sapiens, NCI-H292; NCIH292, lung; read-out: GI50 of etoposide (±Compound 1)
Method: as §1, §2

NCIH460 = conditions: Homo sapiens, NCI-H460; NCIH460, lung; read-out: GI50 of etoposide (±Compound 1)
Method: as §1, §2

NCIH82 = conditions: Homo sapiens, NCI-H82; NCIH82, lung; read-out: GI50 of etoposide (±Compound 1)
Method: as §1, §2

OVCAR3 = conditions: Homo sapiens, OVCAR-3; OVCAR3, ovary; read-out: GI50 of etoposide (±Compound 1)
Method: as §1, §2

OVCAR4 = conditions: Homo sapiens, OVCAR-4; OVCAR4, ovary; read-out: GI50 of etoposide (±Compound 1)
Method: as §1, §2

PANC1 = conditions: Homo sapiens, PANC-1; PANC1, pancreas; read-out: GI50 of etoposide (±Compound 1)
Method: as §1, §2

RAMOS = conditions: Homo sapiens, hematological, read-out: GI50 of etoposide (±Compound 1)
Method: as §1, §2

RDES = conditions: RD-ES, bone, read-out: GI50 of etoposide (±Compound 1)
Method: as §1, §2

SAOS2 = conditions: Homo sapiens, SAOS-2; SAOS2, bone; read-out: GI50 of etoposide (±Compound 1)
Method: as §1, §2

SKBR3 = conditions: Homo sapiens, SK-BR-3; SKBR3, breast; read-out: GI50 of etoposide (±Compound 1)
Method: as §1, §2

SKLMS1 = conditions: Homo sapiens, SK-LMS-1; SKLMS1, uterus; read-out: GI50 of etoposide (±Compound 1)
Method: as §1, §2

SKMEL5 = conditions: Homo sapiens, SK-MEL-5; SKMEL5, skin; read-out: GI50 of etoposide (±Compound 1)
Method: as §1, §2

SU-DHL-6 = conditions: Homo sapiens; SU-DHL-6, hematological; read-out: GI50 of etoposide (±Compound 1)
Method: as §1, §2

SW620 = conditions: Homo sapiens, SW-620; SW620, colon; read-out: GI50 of etoposide (±Compound 1)
Method: as §1, §2

WS15-NHL = conditions: hematological, read-out: GI50 of etoposide (±Compound 1)
Method: as §1, §2

GI50 (22RV1): 0.234 µM
GI50 (A431): 1.52 µM
GI50 (ASPC1): > 10 µM
GI50 (COLO205): 1.05 µM
GI50 (DU145): 0.701 µM
GI50 (MCF7): 1.29 µM
GI50 (MDAMB435): 1.14 µM
GI50 (MDAMB436): 0.378 µM
GI50 (MDAMB468): 1.17 µM
GI50 (MIAPACA2): 0.689 µM
GI50 (OVCAR3): 2.54 µM
GI50 (OVCAR4): > 10 µM
GI50 (PANC1): 1.93 µM
GI50 (RAMOS): 0.204 µM
GI50 (SKBR3): 0.432 µM
GI50 (SKLMS1): 1.64 µM
GI50 (SKMEL5): 0.558 µM
GI50 (SU-DHL-6): 0.665 µM
GI50 (SW620): 0.302 µM
SMILES: COc1cc([C@@H]2c3cc4c(cc3[C@@H](O[C@@H]3O[C@@H]5CO[C@@H](C)O[C@H]5[C@H](O)[C@H]3O)[C@H]3COC(=O)[C@H]23)OCO4)cc(OC)c1O [Etoposide]
GI50 (HEK293): 0.19 µM
GI50 (HS729): 0.73 µM
GI50 (IGROV1): 1.06 µM
GI50 (JEG3): 0.041 µM
GI50 (MG63): 1.02 µM
GI50 (NCIH292): 1.65 µM
GI50 (NCIH460): 0.167 µM
GI50 (NCIH82): 1.15 µM
GI50 (RDES): 0.412 µM
GI50 (SAOS2): 1.46 µM
GI50 (WS15-NHL): 0.149 µM
